Test in all cases: growth of human tumour cells (NCI), 48 h
Assay [1] deals with CAKI-1 renal.
The subject of assay [2] is HOP-92 NSCLC.
Assay [3] relates to HT29 colon.
The subject of assay [4] is MALME-3M melanoma.
The subject of assay [5] is NCI-H226 lung.
The test system of assay [6] is SK-MEL-5 melanoma.
The test system of assay [7] is SNB-75 CNS.
Assay [8] deals with TK-10 renal.
In assay [9] the test system is UACC-62 melanoma.

Molecules are shown by their SMILES. Where “and” joins values, the source holds several entries; their conditions need not be identical. Equal values may be shown once.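 Step 1: Grow cells in 96-well plates. Step 2: Expose to compound for 48 hours at 5 concentrations. Step 3: Interpolate endpoints linearly; if unreached, use highest concentration. The concentration for 50% growth inhibition is given as GI50. The concentration for full growth arrest is given as TGI.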 A value given as a limit tells only on which side of the number the result lay.

With `O=C(Cc1ccccc1)NN1C(=O)C(Cl)C1c1ccccc1Cl` (stereo unspecified), the TGI in assay [1], in [2], in assay [3], in assay [4], in assay [5] and in [6] was more than 100 µM each time. For the same compound, the TGI in [7], in assay [8] and in assay [9] was more than 100 µM each time.
Take `Cc1cc2ncn(-c3nc4ccccc4nc3C(C#N)S(C)(=O)=O)c2cc1C` (stereo unspecified): the TGI in [1], in assay [4], in assay [5], in assay [6], in assay [7] and in assay [8] was more than 100 µM throughout. The compound also came in with a TGI in [9] of more than 100 µM.
As to `N#CCCn1[nH]c(=O)c(Cl)c(Cl)c1=O`, the TGI in assay [2] was determined as 16.6 µM; in assay [3] it was 24.2 µM; in [4], 33 µM; in assay [5], 49.4 µM; in assay [7], 26.7 µM; in [8] it was 68.4 µM.
As to `CC1=CC(=O)CC2(C)CCC(C(C)CC(=O)CC(C)C)CC12OO` (stereo unspecified), the TGI in assay [1] was 33.5 µM and 33.4 µM; in [2], 31 µM and 37 µM; in [3], 43.2 µM and 31.1 µM; in assay [4], > 100 µM and 36.7 µM; in [5] it was 43.5 µM and 37.7 µM; in [6], 35.5 µM and 30.3 µM. In addition, the TGI was 44.9 µM and > 100 µM in [7]; 32.8 µM and 34.1 µM in assay [8]; 31.9 µM and 35.2 µM in assay [9]. Further, the GI50 in assay [7] is 19.8 µM and 55.7 µM.
Take `COC(=O)C(=O)C(C(=O)OC)C(=O)C(=O)Nc1c(C)cccc1C` (stereo unspecified): the TGI in [1], in assay [2], in assay [3], in assay [4], in assay [5] and in assay [6] was more than 100 µM each time. Besides, the TGI in assay [7], in [8] and in [9] was more than 100 µM in each case.
As for `O=C1NC2NC3NC(=O)NC3NC2N1` (stereo unspecified), the TGI in [1], in assay [2], in assay [3], in assay [4], in assay [5] and in [6] was more than 100 µM throughout. Also, the TGI in [7] and in assay [9] was more than 100 µM each time.
`CC(C)/C=C1\CCC(CN(C)C)C1=O` (stereo unspecified): the TGI in assay [1] came to 4.21 µM; in [2], 3.47 µM; in assay [3], 4.84 µM; in assay [4] it was 2.29 µM; in [5], 83 µM; in assay [6], 12.4 µM. Also, the TGI in assay [7] was 6.51 µM; in assay [8], 5.96 µM; in assay [9] it was 32.6 µM.
For the compound `COc1cc2c(c(OC)c1OC)-c1ccc(SC)c(=O)cc1[C@@H](NCc1ccc(F)cc1)CC2`, the GI50 in [1] is less than 0.0075 µM; in assay [8] it was 0.182 µM. The TGI in assay [1] was 51.7 µM and > 100 µM; in assay [2] it was 75 µM and 7.99 µM; in assay [3], less than 0.0075 µM; in assay [4], 34.2 µM and 28.4 µM; in assay [8] it was 75 µM and > 100 µM.
Consider `CC(C)N(C(=O)C12C3C4C1C1C2C3C41C#N)C(C)C` (stereo unspecified), for which the TGI in assay [1], in [2], in [3], in assay [4], in [5] and in assay [6] was more than 100 µM each time. Moreover, the TGI in [7], in assay [8] and in assay [9] was more than 100 µM throughout.
For the compound `CC(C)(C)N=CN1C=Cc2nc3ccccc3cc2C1`, the TGI in assay [1], in assay [2], in assay [3], in assay [4], in assay [6] and in assay [7] was more than 100 µM each time. For the same compound, the TGI in assay [8] and in assay [9] was more than 100 µM throughout.
For the compound `CC(C)c1cccc(C(C)C)c1NC(=O)C(=O)Cc1nc2ccc([N+](=O)[O-])cc2[nH]c1=O`, the TGI in [1], in assay [2], in assay [3], in assay [4], in assay [5] and in [7] was more than 100 µM throughout. Further, the TGI in assay [8] and in [9] was more than 100 µM in each case.
As to `CCOc1ccccc1N=Nc1ccc2oc(=O)c(C(C)=O)cc2c1`, the TGI in [1] is more than 100 µM; in assay [3], more than 100 µM; in assay [4], more than 100 µM; in assay [6], more than 100 µM; in assay [7] it was 43.2 µM; in assay [8], more than 100 µM. Moreover, the TGI in assay [9] is more than 100 µM.
Turning to `O=Cc1c[nH]c2c(=O)[nH]cnc12`, the TGI in assay [1], in assay [2], in assay [3], in assay [4], in assay [6] and in assay [7] was more than 100 µM throughout. Moreover, the TGI in assay [8] and in assay [9] was more than 100 µM in each case.
As to `CC(=O)OI1NC(=O)c2ccccc21`, the TGI in assay [2], in assay [3], in assay [4], in assay [5], in [6] and in [7] was more than 100 µM throughout. The TGI in assay [8] and in assay [9] was more than 100 µM throughout.
`Nc1nc2c(N)cc(C(F)(F)F)cc2nc1-c1ccccc1`: the TGI in assay [1] is more than 100 µM; in [2] it was more than 100 µM; in assay [4], more than 100 µM; in assay [5], more than 100 µM; in assay [6], more than 100 µM; in assay [7], 93.5 µM. Besides, the TGI in [8] and in assay [9] was more than 100 µM in each case.
In the case of `COC(=O)C1CC2C=CC=CC(=O)C2(C)C1` (stereo unspecified), the TGI in assay [1], in assay [3], in assay [4], in [5], in assay [6] and in assay [8] was more than 100 µM each time. Further, the TGI in assay [9] is more than 100 µM.
Regarding `COc1ccc(N2C(=O)c3c(c4[nH]c5ccccc5c4c4ccc(C(C)(C)C)cc34)C2=O)cc1`, the TGI in assay [1] is more than 100 µM; in assay [2], 64.2 µM; in assay [4], more than 100 µM; in assay [5] it was more than 100 µM; in assay [6] it was more than 100 µM; in assay [7] it was 35.4 µM. In addition, the TGI in assay [8] was more than 100 µM; in assay [9] it was 48.3 µM.
`CC1=C(c2nc3ccccc3s2)C(=O)OC1(C)C`: the TGI in assay [1], in assay [3], in [4], in [5], in [6] and in [7] was more than 100 µM each time. In addition, the TGI in assay [9] is more than 100 µM.
As for `Cc1c(O)c(=O)ccn1CCN`, the TGI in assay [1], in assay [2], in assay [3], in [4], in assay [5] and in assay [7] was more than 100 µM each time. The TGI in [8] and in assay [9] was more than 100 µM each time.
In the case of `C=CCCC1(O)C(O)C(CO)O[C@H](O[C@@]2(CO)OC(CO)C(O)C2O)C1O` (stereo partly specified), the TGI in [1], in assay [2], in assay [3], in assay [4], in assay [5] and in assay [6] was more than 100 µM in each case. The TGI in [7] and in assay [8] was more than 100 µM throughout.
Regarding `CCOC1=C2N=C(C(CC)c3ccccc3F)N=C2C(=O)c2ccccc21` (stereo unspecified), the TGI in assay [1] was more than 100 µM; in assay [2] it was more than 100 µM; in assay [3] it was more than 100 µM; in [4] it was more than 100 µM; in [5] it was more than 100 µM; in assay [7], 47.8 µM. In addition, the TGI in assay [8] and in [9] was more than 100 µM each time.
Consider `O=C(CNc1ccccn1)Nn1cnc2ccc(S(=O)(=O)Nc3ccccn3)cc2c1=O`, for which the TGI in assay [1], in assay [2], in assay [3], in [4], in [5] and in [7] was more than 100 µM throughout. Further, the TGI in assay [8] and in assay [9] was more than 100 µM each time.
Consider `COc1ccc(C2=Nc3c(nc(OC)[nH]c3=O)NC(c3ccccc3)C2)cc1` (stereo unspecified), for which the TGI in assay [1] is more than 100 µM; in assay [2], more than 100 µM; in assay [3], more than 100 µM; in [4] it was more than 100 µM; in assay [5] it was more than 100 µM; in assay [6], 33.7 µM. The TGI in [7] was 58.5 µM; in assay [9], more than 100 µM.
Regarding `O=C1[C@@H]2C(c3ccc(Br)cc3)=NO[C@@H]2C(=O)N1c1ccc(Cc2ccc(N3C(=O)[C@H]4C(c5ccc(Br)cc5)=NO[C@H]4C3=O)cc2)cc1`, the GI50 in assay [1], in assay [3], in assay [4], in assay [7] and in assay [9] was more than 40 µM in each case. The TGI in assay [1] was more than 40 µM; in [2] it was more than 40 µM; in [3], more than 40 µM; in assay [4], more than 40 µM; in assay [6], more than 3.48 µM; in assay [7] it was more than 40 µM. Further, the TGI in assay [8] and in assay [9] was more than 40 µM throughout.

Values taken from PubChem BioAssay (NCI).
